The source of these data is PMC10005222, “Development of a Novel Apigenin Dosage form as a Substitute for the Modern Triple Antithrombotic Regimen” (Molecules, 2023).

SMILES strings stand for the structures.

Series [1] has as its system TRAP-6-induced platelet aggregation. The experiment in a line: TRAP-6-induced platelet aggregation in PRP (light transmittance aggregometry). It counts as cell-based, human. Particulars: for IC50: Homo sapiens, TRAP-6 10 μM, PRP, 1 min pre-incubation, mean ± SD, three platelet preparations; for enhanced inhibitory activity with respect to DHA: TRAP-6 induced platelet aggregation. Here is the method:
(§1) The antiplatelet activity of DHA-apigenin, apigenin, DHA, and equimolar solution of apigenin/DHA was studied in platelet rich plasma (PRP) by light transmittance aggregometry (LTA) assay, as previously described. Briefly, PRP was prepared from peripheral venous blood of apparently healthy normolipidemic volunteers. The platelets of PRP were adjusted to a final concentration of 2.5 × 10^8 per Ml with homologous platelet-poor plasma (PPP). The PRP was then pre-incubated with each one of the compounds for 1 min before the initiation of aggregation. The final DMSO concentration in each assay was <0.5% (v/v). In the control experiments, the PRP was incubated with each one of the compounds for 5 min in order to evaluate whether each tested compound was a platelet activator. Platelet aggregation induced by ADP (10 Μm), AA (500 Μm), and TRAP-6 (10 Μm) was determined in aliquots of 0.5 Ml of PRP, at 37 °C under continuous stirring at 1200 rpm, in a Chronolog Lumi-Aggregometer (model 700 4-channel) equipped with the AggroLink software package. The maximal aggregation, achieved within 4 min after the addition of each agonist, was determined and expressed as a percentage of 100% light transmission calibrated for each specimen (maximal percentage of aggregation; MPA). Τhe inhibitory efficacy of each compound tested was also expressed as IC50 values (concentration that induces 50% inhibition of platelet aggregation). All aggregation studies were conducted within 3 h after blood was drawn. The inhibition of platelet aggregation (IPA) values induced by each compound was calculated using the […].

In series [2] the test system is AA-induced platelet aggregation. The series can be described thus: AA-induced platelet aggregation in PRP (light transmittance aggregometry). It counts as cell-based, human. To be noted: for IC50: Homo sapiens, AA 500 μM, PRP, 1 min pre-incubation, mean ± SD, three platelet preparations. Here is the method: as §1
The subject of series [3] is ADP-induced platelet aggregation. The experiment in a line: ADP-induced platelet aggregation in PRP (light transmittance aggregometry). It counts as cell-based, human. To be noted: for IC50: Homo sapiens, ADP 10 μM, PRP, 1 min pre-incubation, mean ± SD, three platelet preparations. Here is the method:
as §1

Series [4] in a line: Serum pharmacokinetics after oral administration in C57BL/6J mice. It counts as in vivo. To be noted: oral 50 mg/kg in olive oil; for Tmax / half-life / AUC(0-t) / Vd/F / Cmax / AUC(0-inf): male, mouse; for AUC(0-t): 0-6 h, read-out: AUC0−t, Estimate (%CV); for Vd/F / Cl/F: normalized to fraction absorbed; for Vd/F: read-out: Vz/F; for Cmax: read-out: Cmax, Estimate (%CV); for AUC(0-inf): to be considered with caution (high extrapolation); for AUC % extrapolated: based on λz, 50 mg/kg. Here is the method:
For the detection of the conjugate, the EVOQ Elite ER TQ (Bruker) mass spectrometer was operated in negative ionization electrospray mode (ESI) under multiple reaction monitoring (MRM). […] Optimum ESI conditions were determined as follows: spray voltage, 4500 V; heated probe gas flow, 50 units; heated probe temperature 350℃; cone gas flow, 20 units; cone temperature, 200 °C; nebulizer gas flow, 40 units. Total control of LC and MS, as well as data acquisition, were performed with MSWS software, Version 8.2.1 (Bruker). For the pharmacokinetic studies, a Xevo-G2-XS-QtoF mass spectrometer, coupled to a Waters UPLC I-Class Binary Solvent Manager (Waters Corp., Milford, MA, USA) was used. The mobile phases were composed of water (LC-MS grade) with formic acid 0.1% (A), and acetonitrile (LC-MS grade) with formic acid 0.1% (B). A constant flow of […] was used, with an injection volume of 1 μL; the gradient was as follows: initial phase (B) concentration 20%, increased to 100% within 1.5 min, then kept constant for 1 min, and reduced to 20% until the end of the run (4 min total runtime). The MS conditions were as follows: the scan range was set at m/z 100–600, and the source voltage was 0.8 Kv in negative ionization electrospray mode (ESI). The source temperature was 550 °C, the flow of desolvation gas (N2) was set to 1000 L per hour, and the cone gas flow was set to 20 L per hour. For MS/MS, the collision energy ramp was set from 20 eV to 40 eV, and the declustering potential was 40 V. The column used was the Acquity UPLC® BEH C18 1.7 µm device. For the post processing and analysis of the acquisition data, UNIFY soFTware was used.
60 male 8-week-old C57BL/6J wild type mice, with mean weight equal to 23.5 ± 2.1 g were randomly divided in two groups (a, b) of 30 and each one received different treatment as follows: (a) the apigenin hybrid formulation and (b) the parent apigenin, dissolved in extra virgin olive oil, orally via the gavage technique at the dose of 50 mg/kg. Mice in each group were randomly further divided in 6 subgroups of five, each group representing one sampling time point (15, 30, 60, 120, 240, and 360 min). Animals were anaesthetized with sevoflurane, and sacrificed to collect blood samples via cardiac puncture, in non-heparinized Eppendorf ® Tubes, at the time point of interest after administration. Blood samples were centrifuged (10,000× g rpm, 15 min, 4 °C), and serum was collected, frozen and stored at −70 °C until further processing. In order to quench the reactions, 395 μL of MeOH were added to each sample, along with IS (5 μL of Rosmarinic acid). The samples were vortexed and centrifuged at 10,000× g for 10 min. Then, the supernatant was taken, filtered and transferred to vials for analysis, as described above.
The Phoenix^TM (www.certara.com)®. software was used for data analysis using non-compartmental PK analysis (NCA). More specifically, sparse sampling NCA was performed to determine basic serum PK parameters, namely AUC0−t, AUCinf, Cmax and Tmax, and to calculate the relative oral bioavailability of apigenin after apigenin hybrid formulation and native apigenin oral administration. To calculate the PK parameters and their standard errors (SE), the mean concentration curve is calculated and used in conjunction with the available subject information. The log-linear trapezoidal method was used to calculate AUC0−t and AUCinf, with extrapolation to infinity by dividing the last concentration by the terminal slope, λz (kel, estimated by linear regression analysis on the last three points of the log-transformed concentration vs. time plot).

The nature of series [5]: Human plasma stability assay (LC-MS/MS). It counts as in vitro ADME. To be noted: 37 °C. As to the method:
Liquid chromatography was performed using an Advance Ultra High Performance Liquid Chromatography (UHPLC) system (Bruker, Germany). The column oven was set at 40 °C. For the separation, a Kinetex C18 column 100 mm × 2.1 mm, 2.6 μm, with a 2.1 mm pro-guard column, was used (Phenomenex). The mobile phases were composed of water (LC-MS grade) with formic acid 0.1% (A) and MeOH (B). The gradient followed at a constant flow of […] was: initial phase (B) concentration 5%, increased to 100% within 1 min, then kept constant for 5.5 min, and reduced to 5% until the end of the run. […] The injection volume was 2 μL, while the auto-sampler temperature was 15 °C.
For the detection of the conjugate, the EVOQ Elite ER TQ (Bruker) mass spectrometer was operated in negative ionization electrospray mode (ESI) under multiple reaction monitoring (MRM). […] Optimum ESI conditions were determined as follows: spray voltage, 4500 V; heated probe gas flow, 50 units; heated probe temperature 350℃; cone gas flow, 20 units; cone temperature, 200 °C; nebulizer gas flow, 40 units. Total control of LC and MS, as well as data acquisition, were performed with MSWS software, Version 8.2.1 (Bruker). […]
The in vitro stability of the apigenin molecular hybrid was evaluated in human plasma (Ph was adjusted to 7.4) at 37 °C. […]

The mark [6] stands for this setting: ADP-induced platelet aggregation.

Consider `CC/C=C\C/C=C\C/C=C\C/C=C\C/C=C\C/C=C\CCC(=O)Oc1ccc(-c2cc(=O)c3c(O)cc(O)cc3o2)cc1` [4′-DHA-apigenin hybrid, 4′-DHA-apigenin], for which, in series [1], the midpoint of inhibition, the IC50, lay at 52 ± 12 µM and the “enhanced inhibitory activity with respect to DHA” value is given as “more than 12 fold”. Also, the “enhancement with respect to native apigenin” value in series [1] (TRAP-6) came out at 2 fold. The “enhanced inhibitory activity with respect to DHA” value in series [1] (listed as 4′-DHA-apigenin) is listed as 12 fold. Also, the “enhanced inhibitory activity with respect to apigenin” value in series [2] (AA-induced platelet aggregation) is 2 fold. The concentration for half-maximal inhibition (IC50) in series [2] was found to be 353 ± 36 µM. In series [3] (setting [6]), the “enhanced inhibitory activity with respect to DHA” value is about 3 fold and the “enhanced inhibitory activity with respect to apigenin” value is about 2 fold. The same molecule had an IC50 in series [3] of 362 ± 20 µM. Further, in series [4], the Tmax came out at 2 h, the half-life is 17.4 h, the AUC(0-t) was 0.0917 µg·h/mL and the Vd/F turned out to be 66.5 L. In series [4], the peak concentration (Cmax) was 0.0178 µg/mL, the AUC(0-inf) was 0.471 µg·h/mL and the Cl/F is listed as 2.65 L/h. The AUC % extrapolated in series [4] (listed as 4′-DHA-Apigenin) is recorded as 80%. In addition, in series [4] (listed as 4′-DHA-apigenin), the AUC % extrapolated is given as 80.5%. The “parent compound still present” value in series [5] (after 30 min of incubation) is reported as 17.3%. In addition, the half-life at 5 µM in series [5] (pH 7.4, read-out: t1/2 in human plasma) is about 0.217 h.
In the case of `O=c1cc(-c2ccc(O)cc2)oc2cc(O)cc(O)c12` [Apigenin, apigenin], the IC50 in series [1] came out at 56 ± 8 µM. Further, the half-maximal inhibitory concentration (IC50) in series [2] turned out to be 850 ± 45 µM. In series [3], the IC50 came to 607 ± 35 µM. Also, in series [4], the time of peak concentration (Tmax) was found to be 2 h, the half-life is 3.44 h, the AUC(0-t) is 0.035 µg·h/mL and the Vd/F was found to be 106 L. In series [4], the Cmax was 0.0108 µg/mL, the area under the curve AUC(0-inf) is 0.0588 µg·h/mL, the AUC % extrapolated is reported as 40% and the Cl/F worked out at 21.3 L/h. In series [4] (listed as native apigenin), the AUC % extrapolated is 40.5%.
For the molecule `CC/C=C\C/C=C\C/C=C\C/C=C\C/C=C\C/C=C\CCC(=O)O` [DHA, Cis-4,7,10,13,16,19-Docosahexanoic acid, reference compound], the IC50 in series [1] is 680 ± 42 µM; in series [2], 130 ± 18 µM; in series [3], 920 ± 53 µM.

For orientation: IC50 means the midpoint of a concentration-inhibition curve. As a reminder, the Tmax is the time from dosing to the highest level. Broadly, the Cmax is the highest concentration seen after dosing. Broadly, the AUC(0-inf) is total exposure, with the tail of the curve extrapolated.
